# Literature values, collected in patent publication EP3342399B1, “PHARMACEUTICAL COMPOSITIONS COMPRISING POSACONAZOLE AND MANUFACTURING METHOD” (Abdi Ibrahim Ilac Sanayi ve Ticaret A.S., priority 2016, dated 2018).
# Where two headings read alike, the source gives them in different places.
smiles,measurement,setting,value
"CC[C@@H]([C@H](C)O)n1ncn(-c2ccc(N3CCN(c4ccc(OC[C@@H]5CO[C@@](Cn6cncn6)(c6ccc(F)cc6F)C5)cc4)CC3)cc2)c1=O [Posaconazole, 1-[(1S,2S)-1-Ethyl-2-hydroxypropyl]-4-{4-[4-(4-{2-[(2S,4R)-(1,2,4-triazol-1-ylmetyl)-2-(2,4-difluorophenyl)-oxolan-4-ylmetyl]phenyl}piperazin-1-yl)phenyl]}-2,3-dihydro-1,2,4-triazol-3-one]",permeability,BCS Class II,high
same,solubility,BCS Class II,low
same,solubility,at low pH,high
